Data taken from US20230329236A1, “HERBICIDAL PYRIMIDINE DERIVATIVES” (MoA Technology Limited, priority 2020, published 2023).

Columns and labels:
[1] = system: Digitaria sanguinalis (DIGSA); assay: Post-emergence glasshouse test, visual injury, DIGSA; format: in vivo; settings: Table 4, post-emergence, 14±1 days post application
Protocol: (§1) Seeds of a variety of test species are grown in a sandy loam soil mixture, Lolium multiflorum (LOLMU), Amaranthus retroflexus (AMARE), Echinochloa crus-gaffi (ECHCG), Veronica persica (VERPE), Glycine max (GLXMA), Oryza sativa (ORYSA), Zea mays (ZEAMX), spring wheat (TRZAS), Ipomoea hederacea (IPOHE), Ipomoea purpurea (PHBPU), Stellaria media (STEME), Solanum nigrum (SOLNI), Digitaria sanguinalis (DIGSA), Setaria italica (SETIT), Alopecurus myosuroides (ALOMY) and Avena fatua (AVEFA).
(§2) After sowing, at growth stage BBCH 12-14 (post-emergence), the plants are sprayed with an aqueous spray solution derived from the formulation of the technical active ingredient in acetone/water (50:50) solution containing 0.5% Tween 20 (polyoxyethlyene sorbitan monolaureate, CAS RN 9005-64-5). The test compounds are applied at the required concentration of active ingredient in g/ha. The test plants are then grown in a glasshouse under controlled environmental conditions and watered regularly as required. After 14±1 days post application (for post-emergence test), the test is evaluated by assessing the percentage damage caused to the plants in comparison with the untreated plots. The biological activities for post-emergence testing are shown below (Table 3 and Table 4) as a % visual injury.

[2] = system: Zea mays (ZEAMX); assay: Post-emergence glasshouse test, visual injury, ZEAMX; format: in vivo; settings: Table 4, post-emergence, 14±1 days post application
Protocol: as §1, §2

[3] = system: Stellaria media (STEME); assay: Post-emergence glasshouse test, visual injury, STEME; format: in vivo; settings: Table 4, post-emergence, 14±1 days post application
Protocol: as §1, §2

[4] = system: Ipomoea purpurea (PHBPU); assay: Post-emergence glasshouse test, visual injury, PHBPU; format: in vivo; settings: Table 4, post-emergence, 14±1 days post application
Protocol: as §1, §2

[5] = system: Setaria italica (SETIT); assay: Post-emergence glasshouse test, visual injury, SETIT; format: in vivo; settings: Table 4, post-emergence, 14±1 days post application
Protocol: as §1, §2

[6] = system: Solanum nigrum (SOLNI); assay: Post-emergence glasshouse test, visual injury, SOLNI; format: in vivo; settings: Table 4, post-emergence, 14±1 days post application
Protocol: as §1, §2

[7] = system: Echinochloa crus-gaffi (ECHCG); assay: Post-emergence glasshouse test, visual injury, ECHCG; format: in vivo, Echinochloa crus-galli; settings: 336 h, 14±1 days post application
Summary of the method: (§3)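 Plants were grown in sandy loam and sprayed post-emergence at BBCH 12-14. The spray was derived from acetone/water (50:50) containing 0.5% Tween 20, dosed as g/ha active ingredient. Percent visual damage versus untreated plants was scored after 14±1 days under controlled glasshouse conditions.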

[8] = system: Alopecurus myosuroides (ALOMY); assay: Post-emergence glasshouse test, visual injury, ALOMY; format: in vivo; settings: Table 4, post-emergence, 14±1 days post application
Protocol: as §1, §2

[9] = system: spring wheat (TRZAS); assay: Post-emergence glasshouse test, visual injury, TRZAS; format: in vivo; settings: Table 4, post-emergence, 14±1 days post application
Protocol: as §1, §2

[10] = system: Lolium multiflorum (LOLMU); assay: Post-emergence glasshouse test, visual injury, LOLMU; format: in vivo; settings: 336 h, 14±1 days post application
Summary of the method: as §3

[11] = system: Glycine max (GLXMA); assay: Post-emergence glasshouse test, visual injury, GLXMA; format: in vivo; settings: Table 4, post-emergence, 14±1 days post application
Protocol: as §1, §2

[12] = system: Oryza sativa (ORYSA); assay: Post-emergence glasshouse test, visual injury, ORYSA; format: in vivo; settings: Table 4, post-emergence, 14±1 days post application
Protocol: as §1, §2

[13] = system: Amaranthus retroflexus (AMARE); assay: Post-emergence glasshouse test, visual injury, AMARE; format: in vivo; settings: 336 h, 14±1 days post application
Summary of the method: as §3

[14] = system: Avena fatua (AVEFA); assay: Post-emergence glasshouse test, visual injury, AVEFA; format: in vivo; settings: Table 4, post-emergence, 14±1 days post application
Protocol: as §1, §2

[15] = system: Ipomoea hederacea (IPOHE); assay: Post-emergence glasshouse test, visual injury, IPOHE; format: in vivo; settings: Table 4, post-emergence, 14±1 days post application
Protocol: as §1, §2

[16] = system: Veronica persica (VERPE); assay: Post-emergence glasshouse test, visual injury, VERPE; format: in vivo; settings: 336 h, 14±1 days post application
Summary of the method: as §3

[17] = Table 4, post-emergence, 125 g/ha
[18] = Table 4, post-emergence, 250 g/ha
[19] = Table 4, post-emergence, 1000 g/ha

With `Cc1cc(-c2cnc(NCc3ccc(F)cc3)nc2C2CC2)on1` [Compound 16] the “DIGSA % visual injury” value ([1]; 125 g/ha) was 90%, the “DIGSA % visual injury” value ([1]; 250 g/ha) was 80% and the “DIGSA % visual injury” value ([1]; 500 g/ha) was 90%. For the same compound, the “DIGSA % visual injury” value ([1]; 1000 g/ha) was 90%, the “ZEAMX % visual injury” value ([2]; 125 g/ha) was 60% and the “ZEAMX % visual injury” value ([2]; 250 g/ha) was 60%. The “ZEAMX % visual injury” value ([2]; 500 g/ha) was 50%, the “ZEAMX % visual injury” value ([2]; 1000 g/ha) was 70% and the “STEME % visual injury” value ([3]; 125 g/ha) was 100%. For the same compound, the “STEME % visual injury” value ([3]; 250 g/ha) was 100%, the “STEME % visual injury” value ([3]; 500 g/ha) was 100% and the “STEME % visual injury” value ([3]; 1000 g/ha) was 100%. The “PHBPU % visual injury” value ([4]; 125 g/ha) was 80%, the “PHBPU % visual injury” value ([4]; 250 g/ha) was 95% and the “PHBPU % visual injury” value ([4]; 500 g/ha) was 90%. For the same compound, the “PHBPU % visual injury” value ([4]; 1000 g/ha) was 90%, the “SETIT % visual injury” value ([5]; 125 g/ha) was 0% and the “SETIT % visual injury” value ([5]; 250 g/ha) was 30%. For the same compound, the “SETIT % visual injury” value ([5]; 500 g/ha) was 30%, the “SETIT % visual injury” value ([5]; 1000 g/ha) was 60% and the “SOLNI % visual injury” value ([6]; 125 g/ha) was 98%. The “SOLNI % visual injury” value ([6]; 250 g/ha) was 99%, the “SOLNI % visual injury” value ([6]; 500 g/ha) was 100% and the “SOLNI % visual injury” value ([6]; 1000 g/ha) was 100%. For the same compound, the pest or weed control at 500 g/ha ([7]; Table 3, post-emergence) was 40%, the pest or weed control at 125 g/ha [7, 17] was 80% and the pest or weed control at 250 g/ha [7, 18] was 70%. For the same compound, the pest or weed control at 500 g/ha ([7]; Table 4, post-emergence) was 60%, the pest or weed control at 1000 g/ha [7, 19] was 90% and the “ALOMY % visual injury” value ([8]; 125 g/ha) was 70%. The “ALOMY % visual injury” value ([8]; 250 g/ha) was 80%, the “ALOMY % visual injury” value ([8]; 500 g/ha) was 80% and the “ALOMY % visual injury” value ([8]; 1000 g/ha) was 80%. For the same compound, the “TRZAS % visual injury” value ([9]; 125 g/ha) was 30%, the “TRZAS % visual injury” value ([9]; 250 g/ha) was 30% and the “TRZAS % visual injury” value ([9]; 500 g/ha) was 50%. The “TRZAS % visual injury” value ([9]; 1000 g/ha) was 50%, the pest or weed control at 500 g/ha ([10]; Table 3, post-emergence) was 0% and the pest or weed control at 125 g/ha [10, 17] was 98%. The pest or weed control at 250 g/ha [10, 18] was 90%, the pest or weed control at 500 g/ha ([10]; Table 4, post-emergence) was 100% and the pest or weed control at 1000 g/ha [10, 19] was 95%. For the same compound, the “GLXMA % visual injury” value ([11]; 125 g/ha) was 50%, the “GLXMA % visual injury” value ([11]; 250 g/ha) was 40% and the “GLXMA % visual injury” value ([11]; 500 g/ha) was 70%. For the same compound, the “GLXMA % visual injury” value ([11]; 1000 g/ha) was 50%, the “ORYSA % visual injury” value ([12]; 125 g/ha) was 60% and the “ORYSA % visual injury” value ([12]; 250 g/ha) was 90%. The “ORYSA % visual injury” value ([12]; 500 g/ha) was 70%, the “ORYSA % visual injury” value ([12]; 1000 g/ha) was 60% and the pest or weed control at 500 g/ha ([13]; Table 3, post-emergence) was 95%. The pest or weed control at 125 g/ha [13, 17] was 100%, the pest or weed control at 250 g/ha [13, 18] was 100% and the pest or weed control at 500 g/ha ([13]; Table 4, post-emergence) was 100%. The pest or weed control at 1000 g/ha [13, 19] was 100%, the “AVEFA % visual injury” value ([14]; 125 g/ha) was 50% and the “AVEFA % visual injury” value ([14]; 250 g/ha) was 60%. For the same compound, the “AVEFA % visual injury” value ([14]; 500 g/ha) was 60%, the “AVEFA % visual injury” value ([14]; 1000 g/ha) was 60% and the “IPOHE % visual injury” value ([15]; 125 g/ha) was 40%. The “IPOHE % visual injury” value ([15]; 250 g/ha) was 80%, the “IPOHE % visual injury” value ([15]; 500 g/ha) was 100% and the “IPOHE % visual injury” value ([15]; 1000 g/ha) was 100%. It also gave a pest or weed control at 500 g/ha ([16]; Table 3, post-emergence) of 95%, a pest or weed control at 125 g/ha [16, 17] of 100% and a pest or weed control at 250 g/ha [16, 18] of 100%. The pest or weed control at 500 g/ha ([16]; Table 4, post-emergence) was 100% and the pest or weed control at 1000 g/ha [16, 19] was 100%.
